Measured values published in US9377472B2, “Biological complex specific for Alzheimer's disease detection in vitro and use thereof” (Amoneta Diagnostics, priority 2012, dated 2016).

How the values were obtained:
PC12 cells [1] = experiment: Immunocytochemistry of Aβ oligomers bound to PC12 cells (A11 antibody); assay type: cell-based, rat
Protocol: In an attempt to characterise the tertiary form of the peptide bound to the cells and responsible for the priming effect that was observed immunocytochemical experiments were performed: PC12 cells were plated on poly-L-ornithine coated coverslips and maintained for 5 days in culture media supplemented with NGF to induce neuronal differentiation at 37° C. According to experimental conditions, PC 12 cells have undergone a chronic treatment and/or an acute treatment (see Example 1). Cells were subsequently rinsed to eliminate unbound Aβ and fixed with 4% paraformaldehyde in phosphate buffered saline (PBS) for 10 minutes. PC12 cells were then incubated in a blocking solution (3% Bovine Serum Albumin in PBS) for 1 hour at room temperature. A rabbit polyclonal antibody A11 (Millipore) directed against Aβ oligomers diluted 1:1500 in blocking solution was applied to the cells overnight at 4° C. Cells were washed three times for 10 minutes with the blocking solution and incubated with the appropriate secondary Dylight 549-conjugated antibody goat […], (Jackson Immunoresearch, diluted 1:2000) for 2 hours at room temperature, washed 3×10 minutes in PBS and mounted in Mowiol.
Panel G of FIG. 2(g) represents the quantification of the fluorescence intensity in the different experimental conditions in 2(a) to 2(f).

PC12 cells [2] = experiment: Calcium imaging (Fura-2) of differentiated PC12 cells after acute and/or chronic Aβ peptide application; assay type: cell-based, rat; settings: preincubated overnight at low concentration (10 nM), then acute 1 μM Aβ1-42
Protocol: PC12 rat pheochromocytoma cells were cultured in RPMI 1640 medium (InVitrogen) supplemented with 5% heat-inactivated horse serum, 10% foetal bovine serum (Dominique Dutcher) and antibiotics (penicillin 100 U/ml, streptomycin 100 U/ml, Sigma) at 37° C. in 5% CO2. PC12 cells were reseeded once a week. Before use, cells were platted in 35 mm glass-bottom culture dishes coated with type I collagen and Poly-L-ornithine; NGF (50 μg/1, Sigma) was added in the culture medium to induce their neuronal differentiation. Cells were used after 5 days in vitro, when they express a complete neuronal phenotype (neurite like extensions, voltage dependent ionic channels, neurotransmitters receptors and neurotransmitter secretion capacities).
PC12 cells platted on glass-bottom culture dishes were loaded with Fura-2 AM (1 μM, InVitrogen) and pluronic acid (InVitrogen) in a Hepes buffer for 20 min at 37° C. […] Fluorescence was excited by a xenon lamp equipped with two alternating filters allowing a fluorescence excitation at 350 nm for Ca^2+-bound Fura-2 and at 380 nm for Ca^2+-unbound Fura-2. Image pairs were recorded during 20 minutes every 5 seconds using an EM-CCD camera (Hamamatsu Photonics). Emitted fluorescence intensities (510 nm) were measured from regions of interest centered on individual cells. Normalized ratios were calculated. […]

Aβ1-42: synthetic beta-amyloid peptide 1-42 (Bachem or Anaspec), SEQ ID NO: 4
fluorescent signal of bound Aβ oligomers after acute application only (PC12 cells [1]; acute application of 1 μM, no preincubation): No significant fluorescent signal | fluorescent signal of bound Aβ oligomers, chronic preincubation associated to acute stimulation (PC12 cells [1]; chronic preincubation plus acute stimulation): a clear signal was observed | fluorescent signal of bound Aβ oligomers after preincubation only (PC12 cells [1]; preincubation with 10 or 50 nM, no acute application): No significant fluorescent signal | priming: [Ca^2+]i response to subsequent acute 1 μM Aβ1-42 after overnight preincubation with the peptide (PC12 cells [2]): amplified
